Values quoted from earlier work, collected in patent US20130136752A1, “Ophthalmic Formulations” (OXIGENE, INC., priority 2010, published 2013).

Legend:
[1] = test system: choroidal neovascularization (CNV); settings: rho/VEGF mice, P7 to P21
[2] = test system: vessels with anomalous structure

COc1ccc(/C=C\c2cc(OC)c(OC)c(OC)c2)cc1OP(=O)(O)O [CA4P, combretastatin A4 phosphate]
neovascular lesions at P21 ([1]; 2.2 mg/kg daily IP): numerous neovascular lesions
number of neovascular lesions and total area of neovascularization per retina versus vehicle ([1]; 4.0 mg/kg daily IP): significant reduction
systemic dose levels disrupting aberrant vessels ([2]; aberrant vessels induced by overexpression of VEGF or by exposure to elevated oxygen): 3 to 4 mg/kg
systemic dose level required for normal immature vessels ([2]; normal immature vessels induced by burn injury): 75 mg/kg
